Experimental findings from PubChem BioAssay AID330 (DTP/NCI, 2004) are described below.

The assay relates to P388 leukemia ip, CD2F1 mice, survival T/C. The experiment in a line: NCI In Vivo Anticancer Drug Screen. Data for tumor model P388 Leukemia (intraperitoneal) in CD2F1 (CDF1) mice. Particulars: endpoint: median survival time, higher = longer survival. A digest of the protocol:
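Mice carrying the transplanted tumor received test compound or vehicle. Survival was recorded in each group, and the value is the treated-group measurement divided by that of the vehicle-treated control group.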

Where [1] appears, read: dose: 60.0 mg/kg/injection, schedule: Q01DX005 (ip), vehicle: Klucel (hydroxypropylcellulose) (HPC).
Setting [2] is: dose: 120.0 mg/kg/injection, schedule: Q01DX005 (ip), vehicle: Klucel (hydroxypropylcellulose) (HPC).
Where [3] appears, read: dose: 240.0 mg/kg/injection, schedule: Q01DX005 (ip), vehicle: Klucel (hydroxypropylcellulose) (HPC).
Where [4] appears, read: dose: 100.0 mg/kg/injection, schedule: Q04DX003 (ip), vehicle: Klucel (hydroxypropylcellulose) (HPC).
Setting [5] is: dose: 200.0 mg/kg/injection, schedule: Q04DX003 (ip), vehicle: Klucel (hydroxypropylcellulose) (HPC).
[6] abbreviates: dose: 50.0 mg/kg/injection, schedule: Q01DX009 (ip), vehicle: saline.
Setting [7] is: dose: 100.0 mg/kg/injection, schedule: Q01DX009 (ip), vehicle: saline.
Where [8] appears, read: dose: 200.0 mg/kg/injection, schedule: Q01DX009 (ip), vehicle: saline.
[9] abbreviates: dose: 50.0 mg/kg/injection, schedule: Q01DX005 (ip), vehicle: Klucel (hydroxypropylcellulose) (HPC).
Setting [10] is: dose: 100.0 mg/kg/injection, schedule: Q01DX005 (ip), vehicle: Klucel (hydroxypropylcellulose) (HPC).
[11] abbreviates: dose: 200.0 mg/kg/injection, schedule: Q01DX005 (ip), vehicle: Klucel (hydroxypropylcellulose) (HPC).
[12] abbreviates: dose: 100.0 mg/kg/injection, schedule: Q01DX005 (ip), vehicle: saline with Tween-80.

“And” between values parts separate entries of the source, which are not always exact repeats. Equal entries are not always repeated. Toxic doses and inconclusive results are not listed.

Consider `CCOC(=O)/C(C#N)=C/NCC1CC1`, for which the T/C is, setting by setting: under setting [1], 102 % of control; under setting [2], 98 % of control; under setting [3], 98 % of control.

In the case of `CCOC(=O)N1C(=O)C2C3CCC(C2C1=O)C1C2C(=O)N(C(=O)OCC)C(=O)C2C31` (centres undefined), the T/C was 103 % of control (dose: 12.5 mg/kg/injection, schedule: Q01DX009 (ip), vehicle: saline with Tween-80); 104 % of control and 111 % of control (dose: 25.0 mg/kg/injection, schedule: Q01DX009 (ip), vehicle: saline with Tween-80); 115 % of control (dose: 50.0 mg/kg/injection, schedule: Q01DX009 (ip), vehicle: saline with Tween-80); 157 % of control (dose: 100.0 mg/kg/injection, schedule: Q01DX009 (ip), vehicle: saline with Tween-80); 222 % of control (dose: 200.0 mg/kg/injection, schedule: Q01DX009 (ip), vehicle: saline with Tween-80).

Regarding `C=CC12COC(=O)CC1CCC(=O)C2` (centres undefined), the T/C reads like this: under setting [4], 99 % of control; under setting [5], 100 % of control.

With `COc1ccc(-n2c(SC)nccc2=O)cc1`, the T/C was 100 % of control under setting [4] and 99 % of control under setting [5].

In the case of `C[N+](C)(C)NC1OC(C(O)S(=O)(=O)O)C(OCc2ccccc2)C(OCc2ccccc2)C1O` (centres undefined), the T/C runs as follows: under setting [6], 104 % of control; under setting [7], 106 % of control.

Regarding `CN1C2C=C(c3ccc(Cl)cc3)CC1CC2` (centres undefined), the T/C was 106 % of control (dose: 6.25 mg/kg/injection, schedule: Q01DX005 (ip), vehicle: Klucel (hydroxypropylcellulose) (HPC)); 103 % of control (dose: 6.25 mg/kg/injection, schedule: Q01DX005 (ip), vehicle: saline); 100 % of control (dose: 12.5 mg/kg/injection, schedule: Q01DX005 (ip), vehicle: Klucel (hydroxypropylcellulose) (HPC)); 114 % of control (dose: 12.5 mg/kg/injection, schedule: Q01DX005 (ip), vehicle: saline); 109 % of control (dose: 25.0 mg/kg/injection, schedule: Q01DX005 (ip), vehicle: Klucel (hydroxypropylcellulose) (HPC)); 100 % of control (dose: 25.0 mg/kg/injection, schedule: Q01DX005 (ip), vehicle: saline).

With `O=Cc1c(-c2ccccc2)nc2sccn12`, the T/C reads like this: (dose: 50.0 mg/kg/injection, schedule: Q04DX003 (ip), vehicle: Klucel (hydroxypropylcellulose) (HPC)) 96 % of control; (dose: 100.0 mg/kg/injection, schedule: Q01DX001 (ip), vehicle: Klucel (hydroxypropylcellulose) (HPC)) 100 % of control; under setting [4], 96 % of control; (dose: 200.0 mg/kg/injection, schedule: Q01DX001 (ip), vehicle: Klucel (hydroxypropylcellulose) (HPC)) 100 % of control; under setting [5], 91 % of control; (dose: 400.0 mg/kg/injection, schedule: Q01DX001 (ip), vehicle: Klucel (hydroxypropylcellulose) (HPC)) 99 % of control.

Take `CCCCN(CCCC)CC(O)c1c(C)c2ccccc2c2ccccc12` (centres undefined): the T/C is 100 % of control (dose: 9.0 mg/kg/injection, schedule: Q01DX009 (ip), vehicle: saline with Tween-80); 100 % of control (dose: 18.0 mg/kg/injection, schedule: Q01DX009 (ip), vehicle: saline with Tween-80); 100 % of control (dose: 36.0 mg/kg/injection, schedule: Q01DX009 (ip), vehicle: saline with Tween-80).

For `O=P(C(=S)Nc1ccc(S(=O)(=O)N2CCCCC2)cc1)(c1ccccc1)c1ccccc1`, the T/C was 97 % of control (dose: 50.0 mg/kg/injection, schedule: Q01DX009 (ip), vehicle: Klucel (hydroxypropylcellulose) (HPC)); 95 % of control (dose: 100.0 mg/kg/injection, schedule: Q01DX009 (ip), vehicle: Klucel (hydroxypropylcellulose) (HPC)); 98 % of control (dose: 200.0 mg/kg/injection, schedule: Q01DX009 (ip), vehicle: Klucel (hydroxypropylcellulose) (HPC)).

On to `CC(=O)OCNCOC(C)=O`, for which the T/C runs as follows: under setting [7], 106 % of control; under setting [8], 108 % of control; (dose: 400.0 mg/kg/injection, schedule: Q01DX009 (ip), vehicle: saline) 106 % of control.

For `NC(=O)c1cnc2nc1NCCCCCCC2`, the T/C by setting is: (dose: 100.0 mg/kg/injection, schedule: Q04DX002 (ip), vehicle: Klucel (hydroxypropylcellulose) (HPC)) 100 % of control; (dose: 200.0 mg/kg/injection, schedule: Q04DX002 (ip), vehicle: Klucel (hydroxypropylcellulose) (HPC)) 98 % of control; (dose: 400.0 mg/kg/injection, schedule: Q04DX002 (ip), vehicle: Klucel (hydroxypropylcellulose) (HPC)) 90 % of control.

On to `O=C1NC(=O)C(Cc2ccc(N(CCO)CCO)cc2)(c2ccccc2)N1` (centres undefined), for which the T/C under setting [9] is 108 % of control and 109 % of control and 116 % of control; the T/C under setting [10] is 111 % of control and 121 % of control; the T/C under setting [11] is 117 % of control and 120 % of control; the T/C (dose: 400.0 mg/kg/injection, schedule: Q01DX005 (ip), vehicle: Klucel (hydroxypropylcellulose) (HPC)) was 110 % of control and 124 % of control.

Consider `c1ccc2cc(-c3cc(-c4cc(-c5ccc6ccccc6c5)on4)no3)ccc2c1`, for which the T/C reads like this: (dose: 60.0 mg/kg/injection, schedule: Q01DX005 (ip), vehicle: Klucel + Tween-80) 100 % of control; (dose: 120.0 mg/kg/injection, schedule: Q01DX005 (ip), vehicle: Klucel + Tween-80) 95 % of control; (dose: 240.0 mg/kg/injection, schedule: Q01DX005 (ip), vehicle: Klucel + Tween-80) 91 % of control.

On to `C[c-]1[c-][c-][c-][c-]1.C[c-]1[c-][c-][c-][c-]1.[C-]#[O+].[C-]#[O+].[C-]#[O+].[C-]#[O+].[C-]#[O+].[C-]#[O+].[Mo].[Mo]`, for which the T/C reads like this: under setting [12], 98 % of control; (dose: 200.0 mg/kg/injection, schedule: Q01DX005 (ip), vehicle: saline with Tween-80) 93 % of control.

With `CC1(C)C(=O)C=C[C@]2(C)[C@H]3CC[C@]4(C)C(=CC[C@H]4c4ccoc4)[C@]3(C)[C@H](O)C[C@@H]12`, the T/C is, setting by setting: (dose: 7.81 mg/kg/injection, schedule: Q01DX005 (ip), vehicle: Klucel (hydroxypropylcellulose) (HPC)) 98 % of control; (dose: 15.63 mg/kg/injection, schedule: Q01DX005 (ip), vehicle: Klucel (hydroxypropylcellulose) (HPC)) 98 % of control; (dose: 31.25 mg/kg/injection, schedule: Q01DX005 (ip), vehicle: Klucel (hydroxypropylcellulose) (HPC)) 95 % of control; (dose: 62.5 mg/kg/injection, schedule: Q01DX005 (ip), vehicle: Klucel (hydroxypropylcellulose) (HPC)) 95 % of control; (dose: 125.0 mg/kg/injection, schedule: Q01DX005 (ip), vehicle: Klucel (hydroxypropylcellulose) (HPC)) 93 % of control.

Turning to `O=C1c2ccccc2C(=O)c2c1ccc1ccccc21`, the T/C (dose: 50.0 mg/kg/injection, schedule: Q01DX005 (ip), vehicle: saline with Tween-80) is 99 % of control and the T/C under setting [12] was 89 % of control.

On to `CC(C)c1cc2c(cc1O)C(O)C1(O)CCCC(C)(C)[C@H]1CC2` (some centres undefined), for which the T/C reads like this: (dose: 7.5 mg/kg/injection, schedule: Q01DX005 (ip), vehicle: other) 104 % of control; (dose: 15.0 mg/kg/injection, schedule: Q01DX005 (ip), vehicle: other) 100 % of control; (dose: 30.0 mg/kg/injection, schedule: Q01DX005 (ip), vehicle: other) 86 % of control; (dose: 60.0 mg/kg/injection, schedule: Q01DX005 (ip), vehicle: other) 94 % of control.

For the compound `CCOC(=O)C(/C=N\c1[nH]ncc1C#N)=C(/C(=O)OCC)c1ccc(O)cc1`, the T/C runs as follows: under setting [9], 110 % of control; under setting [10], 105 % of control; under setting [11], 105 % of control.

For the compound `CC(/C=N\Nc1ccc(C(=O)O)cc1)=N/NC(=O)CC#N`, the T/C was 88 % of control under setting [6], 86 % of control under setting [7] and 88 % of control under setting [8].

`O=S(=O)(O)N(O)c1ccccc1`: the T/C was 103 % of control and 97 % of control (dose: 25.0 mg/kg/injection, schedule: Q01DX001 (ip), vehicle: saline); 113 % of control and 95 % of control (dose: 50.0 mg/kg/injection, schedule: Q01DX001 (ip), vehicle: saline); 106 % of control and 124 % of control (dose: 100.0 mg/kg/injection, schedule: Q01DX001 (ip), vehicle: saline); 94 % of control (dose: 200.0 mg/kg/injection, schedule: Q01DX001 (ip), vehicle: saline).

For `CC1(C)SC(C)(c2ccsc2)N(c2nccs2)C1=O` (centres undefined), the T/C runs as follows: under setting [1], 97 % of control; under setting [2], 96 % of control; under setting [3], 94 % of control.

Take `CCCCCCCCCCCCCCCCCCOC(=O)C(N)Cc1ccc(O)cc1` (centres undefined): the T/C is 106 % of control under setting [1], 101 % of control under setting [2] and 105 % of control under setting [3].
